Measurements taken from ChEMBL document CHEMBL3046389, “Synthesis and biological evaluation of novel hydroquinone dimethyl ethers as potential anticancer and antimicrobial agents” (2013).
Values after ≈ are worked out from the molar mass of the structure shown.

Tests used:
Type in all cases: functional
MDA-MB-231 = experiment: Anticancer activity against Homo sapiens (human) MDA-MB-231/ATCC cells after 48 hr by SRB assay; details: MDA-MB-231, 48 h
Hs-578T [1] = experiment: Anticancer activity against Homo sapiens (human) Hs 578T cells after 48 hr by SRB assay
U-251 = experiment: Growth inhibition of Homo sapiens (human) U251 cells at 10 uM after 48 hr by SRB assay; details: U-251, 48 h, read-out: GI
HOP-62 [2] = experiment: Anticancer activity against Homo sapiens (human) HOP62 cells after 48 hr by SRB assay; details: HOP-62, 48 h
NCI-H522 = experiment: Anticancer activity against Homo sapiens (human) NCI-H522 cells after 48 hr by SRB assay; details: NCI-H522, 48 h
NCI-H460 = experiment: Growth inhibition of Homo sapiens (human) NCI-H460 cells at 10 uM after 48 hr by SRB assay; details: NCI-H460, 48 h, read-out: GI
Hs-578T [3] = experiment: Growth inhibition of Homo sapiens (human) Hs 578T cells at 10 uM after 48 hr by SRB assay; details: read-out: GI
HCC 2998 = experiment: Anticancer activity against Homo sapiens (human) HCC2998 cells after 48 hr by SRB assay; details: HCC 2998, 48 h
MOLT-4 [4] = experiment: Growth inhibition of Homo sapiens (human) MOLT4 cells at 10 uM after 48 hr by SRB assay; details: MOLT-4, 48 h, read-out: GI
Pseudomonas aeruginosa = experiment: Antimicrobial activity against Pseudomonas aeruginosa ATCC 10145 after 48 hr by two-fold serial broth dilution method; details: ATCC 10145, 48 h
UACC-62 = experiment: Anticancer activity against Homo sapiens (human) UACC62 cells after 48 hr by SRB assay; details: UACC-62, 48 h
SK-OV-3 = experiment: Anticancer activity against Homo sapiens (human) SKOV3 cells after 48 hr by SRB assay; details: SK-OV-3, 48 h
RXF 393 = experiment: Anticancer activity against Homo sapiens (human) RXF393 cells after 48 hr by SRB assay; details: RXF 393, 48 h
RPMI-8226 = experiment: Anticancer activity against Homo sapiens (human) RPMI8226 cells after 48 hr by SRB assay; details: RPMI-8226, 48 h
MOLT-4 [5] = experiment: Anticancer activity against Homo sapiens (human) MOLT4 cells after 48 hr by SRB assay; details: MOLT-4, 48 h
A549 = experiment: Anticancer activity against Homo sapiens (human) A549/ATCC cells after 48 hr by SRB assay; details: A549, 48 h
KM12 = experiment: Growth inhibition of Homo sapiens (human) KM12 cells at 10 uM after 48 hr by SRB assay; details: KM12, 48 h, read-out: GI
M14 = experiment: Anticancer activity against Homo sapiens (human) M14 cells after 48 hr by SRB assay; details: M14, 48 h
BT-549 = experiment: Anticancer activity against Homo sapiens (human) BT549 cells after 48 hr by SRB assay; details: BT-549, 48 h
HCT-116 = experiment: Anticancer activity against Homo sapiens (human) HCT116 cells after 48 hr by SRB assay; details: HCT-116, 48 h
UACC-257 = experiment: Anticancer activity against Homo sapiens (human) UACC257 cells after 48 hr by SRB assay; details: UACC-257, 48 h
SF-295 = experiment: Growth inhibition of Homo sapiens (human) SF295 cells at 10 uM after 48 hr by SRB assay; details: SF-295, 48 h, read-out: GI
T47D = experiment: Growth inhibition of Homo sapiens (human) T47D cells at 10 uM after 48 hr by SRB assay; details: read-out: GI
OVCAR-8 = experiment: Anticancer activity against Homo sapiens (human) OVCAR8 cells after 48 hr by SRB assay; details: OVCAR-8, 48 h
HT-29 = experiment: Growth inhibition of Homo sapiens (human) HT-29 cells at 10 uM after 48 hr by SRB assay; details: HT-29, 48 h, read-out: GI
HCT-15 = experiment: Anticancer activity against Homo sapiens (human) HCT15 cells after 48 hr by SRB assay; details: HCT-15, 48 h
SNB-75 = experiment: Anticancer activity against Homo sapiens (human) SNB75 cells after 48 hr by SRB assay; details: SNB-75, 48 h
K562 = experiment: Anticancer activity against Homo sapiens (human) K562 cells after 48 hr by SRB assay; details: K562, 48 h
HOP-62 [6] = experiment: Growth inhibition of Homo sapiens (human) HOP62 cells at 10 uM after 48 hr by SRB assay; details: HOP-62, 48 h, read-out: GI
MDA-MB-468 = experiment: Growth inhibition of Homo sapiens (human) MDA-MB-468 cells at 10 uM after 48 hr by SRB assay; details: MDA-MB-468, 48 h, read-out: GI
SW-620 = experiment: Anticancer activity against Homo sapiens (human) SW620 cells after 48 hr by SRB assay; details: SW-620, 48 h
NCI/ADR-RES = experiment: Anticancer activity against Homo sapiens (human) NCI/ADR-RES cells after 48 hr by SRB assay
[7] = read-out: LC50 (the source's name)

COc1ccc(OC)c(/C=C/C(=O)N/N=C/c2ccc(Cl)cc2)c1
GI50 (MDA-MB-231): 1370 nM
TGI (MDA-MB-231): > 100000 nM
CC50 (MDA-MB-231; [7]): > 100000 nM
GI50 (Hs-578T [1]): 284 nM
TGI (Hs-578T [1]): > 100000 nM
CC50 (Hs-578T [1]; [7]): > 100000 nM
inhibition of growth at 10 µM (U-251): 81.6%
GI50 (HOP-62 [2]): 162 nM
TGI (HOP-62 [2]): 50200 nM
CC50 (HOP-62 [2]; [7]): > 100000 nM
GI50 (NCI-H522): 29.2 nM
TGI (NCI-H522): 382 nM
CC50 (NCI-H522; [7]): > 100000 nM
inhibition of growth at 10 µM (NCI-H460): 94.8%
inhibition of growth at 10 µM (Hs-578T [3]): 102%
GI50 (HCC 2998): 139 nM
TGI (HCC 2998): 1190 nM
CC50 (HCC 2998; [7]): 6520 nM
inhibition of growth at 10 µM (MOLT-4 [4]): 73.7%
MBC (Pseudomonas aeruginosa): 50 µg/mL (≈ 145 µM)
MIC (Pseudomonas aeruginosa): 50 µg/mL (≈ 145 µM)
GI50 (UACC-62): 68 nM
LC50 (UACC-62): > 100000 nM
TGI (UACC-62): > 100000 nM
GI50 (SK-OV-3): 149 nM
LC50 (SK-OV-3): > 100000 nM
TGI (SK-OV-3): 13900 nM
GI50 (RXF 393): 46.9 nM
LC50 (RXF 393): > 100000 nM
TGI (RXF 393): 298 nM
GI50 (RPMI-8226): 300 nM
TGI (RPMI-8226): 15700 nM
CC50 (RPMI-8226; [7]): > 100000 nM
GI50 (MOLT-4 [5]): 523 nM
TGI (MOLT-4 [5]): > 100000 nM
CC50 (MOLT-4 [5]; [7]): > 100000 nM
GI50 (A549): 242 nM
TGI (A549): > 100000 nM
CC50 (A549; [7]): > 100000 nM
inhibition of growth at 10 µM (KM12): 82%
GI50 (M14): 87.9 nM
LC50 (M14): > 100000 nM
TGI (M14): 6700 nM
GI50 (BT-549): 1170 nM
TGI (BT-549): > 100000 nM
CC50 (BT-549; [7]): > 100000 nM
GI50 (HCT-116): 75 nM
TGI (HCT-116): 3050 nM
CC50 (HCT-116; [7]): > 100000 nM
GI50 (UACC-257): 36500 nM
LC50 (50% lethal concentration) (UACC-257): > 100000 nM
TGI (UACC-257): > 100000 nM
inhibition of growth at 10 µM (SF-295): 68.2%
inhibition of growth at 10 µM (T47D): 70.5%
GI50 (OVCAR-8): 350 nM
LC50 (OVCAR-8): > 100000 nM
TGI (OVCAR-8): > 100000 nM
inhibition of growth at 10 µM (HT-29): 93.5%
GI50 (HCT-15): 83.5 nM
TGI (HCT-15): > 100000 nM
CC50 (HCT-15; [7]): > 100000 nM
GI50 (SNB-75): 98 nM
TGI (SNB-75): 1170 nM
CC50 (SNB-75; [7]): > 100000 nM
GI50 (K562): 48.8 nM
TGI (K562): > 100000 nM
CC50 (K562; [7]): > 100000 nM
inhibition of growth at 10 µM (HOP-62 [6]): 62.1%
inhibition of growth at 10 µM (MDA-MB-468): 104%
GI50 (SW-620): 81.3 nM
TGI (SW-620): > 100000 nM
CC50 (SW-620; [7]): > 100000 nM
GI50 (NCI/ADR-RES): 39.1 nM
LC50 (NCI/ADR-RES): 90600 nM
TGI (NCI/ADR-RES): 233 nM
